From patent US10851053B2, “Chemical compounds” (GlaxoSmithKline Intellectual Property Development Limited, priority 2016, dated 2020)
“And” between values parts separate entries of the source, which are not always exact repeats. Equal entries are not always repeated.

Tested on: ATF4 translation (ATF4 pathway), SH-SY5Y-ATF4-NanoLuc cells
Assay: ATF4 cell based assay (ATF4 5'-UTR NanoLuc luciferase reporter, Thapsigargin induced cellular stress)
Settings: SH-SY5Y-ATF4-NanoLuc cells challenged with Thapsigargin for 14-18 hours; average of two or more experimental runs; read-out: average ATF4 pathway inhibitory activity (IC50)
From the text: The ATF4 reporter assay measures the effect of Thapsigargin induced cellular stress on ATF4 expression. For this reporter assay, a stable cell line was created by transfecting SH-SY5Y cells with a plasmid containing the NanoLuc® luciferase gene fused to the 5′-UTR of ATF4, under the control of the CMV promoter. The ATF4 5′-UTR contains two open reading frames which mediate the cellular stress-dependent translation of the reporter gene. Clones stably expressing the reporter construct were isolated and selected based on the luminescence response to thapsigargin and inhibition of this signal by test compounds. Briefly, SH-SY5Y-ATF4-NanoLuc cells were challenged with Thapsigargin for 14-18 hours to determine the stress effect with or without test compounds.
Cells were propagated in growth media consisting of 90% DMEM F12 (InVitrogen #11320-033), 10% Fetal Bovine Serum (Gibco #10438-026), 5 mM Glutamax (Gibco #35050-061), 5 mM Hepes, (Gibco #15630-080), and 0.5 mg/ml Geneticin (Gibco #10131-027). Cells were prepared for the assay by removing all media from cells, washing the plated cells with phosphate buffered saline, and detached by adding a solution comprised of 10% Tryple express solution (InVitrogen12604-021) and 90% enzyme-free cell dissociation buffer HANKS base (Gibco 13150-016). The trypsin was deactivated by adding assay media comprised of 90% phenol-red free DMEM F12 (InVitrogen, 11039), 10% Fetal Bovine Serum (Gibco #10438-026), (5 mM Glutamax (Gibco #35050-061), 5 mM Hepes, (Gibco #15630-080), and 0.5 mg/ml Geneticin (Gibco #10131-027). Suspended cells were spun down at 300 g for 5 min, the supernatant was removed and the cell pellet was suspended in warm media (30-37° C.) comprised as above at (1e6 cell/ml).
Assay plates were prepared by adding 250 nL of compound stock solution in 100% DMSO to each well, followed by dispensing 20 microliters/well cell suspension to deliver 15-20 k cell/well. Cells were incubated for 1 hour at 37° C. Then, 5 μL of 1.5 μM or 1 μM of Thapsigargin (final concentration: 200-300 nM) was added to each well of cells. Assay plates containing cells were incubated for 14-18 hours at 37° C.
The measurement of luciferase produced by the ATF4 constructs was measured as follows. Aliquots of the Nano-Glo reagent (Nano-Glo® Luciferase Assay Substrate, Promega, N113, Nano-Glo® Luciferase Assay Buffer, Promega, N112 (parts of Nano-Glo® Luciferase Assay System, N1150) were brought to room temperature, the substrate and buffer were mixed according to manufacturer's instructions. The cell plates were equilibrated to room temperature. 25 microliters/well of the mixed Nano-Glo reagent were dispensed into assay wells and pulse spun to settle contents and the plate was sealed with film. The plates were incubated at room temperature for 1 hour before detecting luminescence on an Envision plate reader.
Compounds of the invention are tested for activity against ATF4 translation in the above assay.

`O=C(COc1ccc(Cl)cc1)NCC1(F)CCN(C(=O)COc2ccc(Cl)cc2)C1` (stereo not drawn) [Example 36, 2-(4-chlorophenoxy)-N-((1-(2-(4-chlorophenoxy)acetyl)-3-fluoropyrrolidin-3-yl)methyl)acetamide] and `O=C(COc1ccc(Cl)cc1)NCC1(F)CCN(CCOc2ccc(Cl)cc2)C1` (stereo not drawn) [Example 42, 2-(4-chlorophenoxy)-N-((1-(2-(4-chlorophenoxy)ethyl)-3-fluoropyrrolidin-3-yl)methyl)acetamide] fall in the same range of IC50: 101 to 1000 nM for the first, 101 to 1000 nM for the second.

`O=C(COc1ccc(Cl)cc1)NCC1CCN(C(=O)CCCc2ccc(Cl)cc2)C1` (stereo not drawn) [Example 38, 2-(4-chlorophenoxy)-N-((1-(4-(4-chlorophenyl)butanoyl)pyrrolidin-3-yl)methyl)acetamide] and `O=C(COc1ccc(Cl)cc1)NCC1CCN(C(=O)C2CC2c2ccc(Cl)cc2)C1` (stereo not drawn) [Example 40, 2-(4-chlorophenoxy)-N-((1-(2-(4-chlorophenyl)cyclopropanecarbonyl)pyrrolidin-3-yl)methyl)acetamide] cannot be ordered by IC50: less than 100 nM for the first, less than 100 nM for the second.

First: CC1CC(CNC(=O)COc2ccc(Cl)cc2)CN1C(=O)COc1ccc(Cl)cc1 (stereo not drawn) [Example 39, 2-(4-chlorophenoxy)-N-((1-(2-(4-chlorophenoxy)acetyl)-5-methylpyrrolidin-3-yl)methyl)acetamide]
Second: CC1(CNC(=O)COc2ccc(Cl)cc2)CCN(CCOc2ccc(Cl)cc2)C1 (stereo not drawn) [Example 43, 2-(4-chlorophenoxy)-N-((1-(2-(4-chlorophenoxy)ethyl)-3-methylpyrrolidin-3-yl)methyl)acetamide]
The IC50 of the first is higher: 101 to 1000 nM for the first, less than 100 nM for the second.

`O=C(COc1ccc(Cl)c(Cl)c1)NCC1CCN(CCCOc2ccc(Cl)cc2)C1` (stereo not drawn) [Example 44, N-((1-(3-(4-chlorophenoxy)propyl)pyrrolidin-3-yl)methyl)-2-(3,4-dichlorophenoxy)acetamide] and `Cc1cc(OCC(=O)NCC2CCN(CCCOc3ccc(Cl)cc3)C2)ccc1Cl` (stereo not drawn) [Example 47, 2-(4-chloro-3-methylphenoxy)-N-((1-(3-(4-chlorophenoxy)propyl)pyrrolidin-3-yl)methyl)acetamide] cannot be ordered by IC50: less than 100 nM for the first, less than 100 nM for the second.

First: O=C(COc1ccc(C(F)(F)F)cc1)NCC1CCN(CCCOc2ccc(Cl)cc2)C1 (stereo not drawn) [Example 45, N-((1-(3-(4-chlorophenoxy)propyl)pyrrolidin-3-yl)methyl)-2-(4-(trifluoromethyl)phenoxy)acetamide]
Second: O=C(COc1ccc(Cl)cc1)NCC1CCN(CCCOc2ccc(F)cc2)C1 (stereo not drawn) [Example 49, 2-(4-chlorophenoxy)-N-((1-(3-(4-fluorophenoxy)propyl)pyrrolidin-3-yl)methyl)acetamide]
The IC50 of the first is lower: less than 100 nM for the first, 101 to 1000 nM for the second. The first is the more potent here.

`O=C(COc1ccc(F)cc1Cl)NCC1CCN(CCCOc2ccc(Cl)cc2)C1` (stereo not drawn) [Example 46, 2-(2-chloro-4-fluorophenoxy)-N-((1-(3-(4-chlorophenoxy)propyl)pyrrolidin-3-yl)methyl)acetamide] and `O=C(COc1ccc(Cl)cc1)NCC1CCN(CCCOc2cccc(Cl)c2)C1` (stereo not drawn) [Example 50, 2-(4-chlorophenoxy)-N-((1-(3-(3-chlorophenoxy)propyl)pyrrolidin-3-yl)methyl)acetamide] fall in the same range of IC50: 101 to 1000 nM for the first, 101 to 1000 nM for the second.

`O=C(COc1ccc(Cl)nc1)N[C@H]1[C@@H]2CN(CCCOc3ccc(Cl)cc3)C[C@@H]21` [Example 51, N-((1R,5S,6s)-3-(3-(4-chlorophenoxy)propyl)-3-azabicyclo[3.1.0]hexan-6-yl)-2-((6-chloropyridin-3-yl)oxy)acetamide] and `O=C(COc1ccc(Cl)cn1)N[C@H]1[C@@H]2CN(CCCOc3ccc(Cl)cc3)C[C@@H]21` [Example 52, N-((1R,5S,6s)-3-(3-(4-chlorophenoxy)propyl)-3-azabicyclo[3.1.0]hexan-6-yl)-2-((5-chloropyridin-2-yl)oxy)acetamide] cannot be ordered by IC50: less than 100 nM for the first, less than 100 nM for the second.

With `O=C(COc1ccc(Cl)cc1)N[C@H]1[C@@H]2CN(C(=O)C3CC3c3ccc(Cl)cc3)C[C@@H]21` (stereo partly drawn) [Example 37, 2-(4-chlorophenoxy)-N-((1R,5S,6s)-3-(2-(4-chlorophenyl)cyclopropane-1-carbonyl)-3-azabicyclo[3.1.0]hexan-6-yl)acetamide] the IC50 was < 100 nM and 69.5 nM.
